Read-outs that look alike come from different tables or passages of the source. Some results are limits rather than exact numbers.

The IC50 is the concentration that inhibits the measured activity by half. Broadly, the MIC is the least concentration at which growth counts as inhibited. A word on the inhibition: it is the relative decrease from the control value, in per cent.

For assay [1], the system named is Capan2 (pancreatic adenocarcinoma). Also noted: method as in PMID 36793764, PMID 34638791, PMID 35054999. The following applies: Figure 1, complex Ia; cited from earlier work.
In assay [2] the test system is Gram-positive multiresistant bacteria (Staphylococcus aureus, Enterococcus species). Also noted: method as in PMID 35494644, PMID 36793764. The following applies: Figure 1, Staphylococcus aureus; cited from earlier work.
In another assay the test system is A2780 (ovarian). The following applies: Figure 1, complex Ia; read-out: IC50 A2780 (ovarian, cisplatin resistant); cited from earlier work.
A further assay deals with Saos (sarcoma). Also noted: method as in PMID 36793764, PMID 34638791, PMID 35054999. The following applies: Figure 1, complex Ia; cited from earlier work.
Another assay relates to ID8 (ovarian). The arrangement: method as in PMID 36793764, PMID 34638791, PMID 35054999. The following applies: Figure 1, complex Ia; cited from earlier work.
The test system of assay [3] is Enterococcus faecalis (ATCC29212). Put plainly: Broth microdilution MIC, reference strain. Format: cell-based. The following applies: Enterococcus faecalis, 24 h, tested range 0.08–40 μM, read-out: MIC E. faecalis ATCC 29,212. The essentials: (§1)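 EUCAST broth microdilution in Mueller–Hinton broth, inoculum 5.0 × 10^5 CFU/mL, compounds at 0.08–40 μM (twofold dilutions), 24 h at 37 °C. Plates read visually; MIC taken as lowest concentration giving ≥50% inhibition versus drug-free growth control.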
A general note: Dilution methods test growth across graded concentrations, often in twofold steps.

The subject of assay [4] is Staphylococcus aureus (ATCC29213). Put plainly: Broth microdilution MIC, reference strain. The following applies: Staphylococcus aureus, ATCC29213, 24 h, 0.08–40 μM, read-out: MIC S. aureus ATCC 29213. Format: cell-based. Put shortly: as §1
Assay [5] relates to A2780 cells. Briefly: MTT reduction assay, early toxicity, 4 h treatment. Format: cell-based. The following applies: Homo sapiens, inhibition at maximum concentration (100 μM) where no plateau, ND = not detectable, read-out: A2780 MTT Max Inhibition. Put shortly: (§2)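 Cells plated the day before, exposed to compounds for 4 h, then MTT 0.5 mg/mL for 40–60 min at 37 °C; reduced dye dissolved in DMSO, read at 540 nm relative to vehicle wells. IC50 by four-parameter fit; otherwise % inhibition at 100 μM.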
Background: Formazan colour is commonly taken as a measure of viable cells.

In assay [6] the test system is primary human dermal fibroblasts. Put plainly: MTT reduction assay, early toxicity, 4 h treatment. Format: cell-based. The following applies: up to 100 μM. Put shortly: as §2
Another assay concerns MCF7 cells. Briefly: SRB assay, 48 h. Format: cell-based. As for the experimental part:
(§3) Figure 8 Assessment of free ligand 3a and complex Ru-3a for cytostatic activity in multiple carcinomas. […] Cells were treated with the compounds in the concentrations indicated for 48 h; then, an SRB assay was performed. Data are represented as average ± SD from three biological replicates; individual assays were performed in duplicates. Values were normalized for vehicle-treated cells; absorbance for vehicle-treated cells equals 1. Statistical significance was assessed using a one-way ANOVA test comparing all values to the lowest concentration of a compound. Before the test, normality was assessed using the Shapiro–Wilk test, and the post hoc test was chosen accordingly. […] An SRB assay measures protein content of cells in correlation with the cell number in an assay well and can therefore be used to assess cell proliferation or long-term cytostasis. Cells were seeded in 96-well plates the day before the assay. Cells were treated with the compounds for 48 h. Then medium was removed, and cells were fixed with 10% trichloroacetic acid. […] Stained cells were washed in 1% acetic acid 5 times; acetic acid was removed, and cells were left to dry. Protein-bound SRB was released by adding 100 μL 10 mM Tris base. Plates were measured in a plate photometer (Thermo Scientific Multiscan GO spectrophotometer, Waltham, MA, USA) at 540 nm. On each plate, wells were designed to contain vehicle-treated cells. […] Statistical analysis was performed using version 8.0.1 of GraphPad Prism. Values were tested for normal distribution using the Shapiro–Wilk normality test. […] In other cases, the percentage of inhibition was taken for the maximum concentration (100 μM).

For a further assay, the system named is U251 cells. Briefly: SRB assay, 48 h. Format: cell-based. As to the method: as §3
A general note: Sulforhodamine B stains cellular protein and so reports cell mass.

A further assay concerns ID8 cells. Put plainly: SRB assay, 48 h. Format: cell-based. As to the method:
as §3

The test system of a further assay is Capan2 cells. Put plainly: SRB assay, 48 h. Format: cell-based. As for the experimental part:
as §3

Assay [7] concerns vancomycin-resistant Enterococcus (VRE) clinical isolates. Put plainly: Broth microdilution MIC, clinical VRE isolates. Format: cell-based, E. faecium. The following applies: Enterococcus, 24 h, 0.08–40 μM. The essentials: (§4)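 S. aureus and E. faecium clinical isolates (Debrecen, 2018–2020; MALDI-TOF-identified) tested by EUCAST broth microdilution in Mueller–Hinton broth at 5.0 × 10^5 CFU/mL across 0.08–40 μM (twofold). After 24 h at 37 °C, visually read; MIC is the lowest concentration giving ≥50% inhibition versus growth control. At least two runs in duplicate.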

Assay [8] relates to A2780 cells. Briefly: SRB binding assay, cytostasis, 48 h treatment. Format: cell-based. Put shortly:
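Ovarian cancer A2780 cells and primary human dermal fibroblasts treated 48 h, TCA-fixed, SRB-stained, absorbance at 540 nm relative to vehicle. IC50 from four-parameter fit when a plateau was reached or inhibition exceeded 90%; otherwise percent inhibition at 100 μM.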

Assay [9] deals with methicillin-resistant Staphylococcus aureus (MRSA) clinical isolates. Put plainly: Broth microdilution MIC, clinical MRSA isolates. Format: cell-based. The following applies: Staphylococcus aureus, 24 h, 0.08–40 μM. The essentials: as §4

Turning to `Cc1ccc(C(C)C)cc1.F[P-](F)(F)(F)(F)F.O=C(OCC1OC(n2cc(-c3ccc4ccccc4n3)nn2)C(OC(=O)c2ccccc2)C(OC(=O)c2ccccc2)C1OC(=O)c1ccccc1)c1ccccc1.[Cl][Os+]` (centres unmarked) [Ia], the half-inhibitory concentration (IC50) in [1] was 1.35 µM; in the assay with A2780 (ovarian) it was 0.43 µM; in the assay with Saos (sarcoma), 1.29 µM; in the assay with ID8 (ovarian) it was 0.36 µM. For the same compound, the “MIC on Gram-positive multiresistant bacteria” value in assay [2] is 5 to 20 µM.
In the case of `N[C@@H]1[C@@H](OCc2ccccc2)[C@H](OCc2ccccc2)[C@@H](COCc2ccccc2)O[C@H]1c1ccccn1` [Complex 3a, 2-(2′-Amino-2′-deoxy-3′,4′,6′-tri-O-benzyl-β-D-glucopyranosyl)pyridine], the MIC in assay [3] was more than 40 µM; in assay [4], more than 40 µM; in [7] (clinical isolate 25,051 VRE, read-out: MIC 25,051 VRE), more than 40 µM; in [7] (clinical isolate 25,498 VRE, read-out: MIC 25,498 VRE), more than 40 µM; in assay [7] (clinical isolate 27,085 VRE, read-out: MIC 27,085 VRE) it was more than 40 µM; in [9] (clinical isolate 20,426 MRSA, read-out: MIC 20,426 MRSA) it was more than 40 µM. Besides, the MIC in assay [9] (clinical isolate 24,035 MRSA, read-out: MIC 24,035 MRSA) was more than 40 µM; in assay [9] (clinical isolate 24,268 MRSA, read-out: MIC 24,268 MRSA), more than 40 µM; in [9] (clinical isolate 24,272 MRSA, read-out: MIC 24,272 MRSA) it was more than 40 µM; in assay [9] (clinical isolate 24,328 MRSA, read-out: MIC 24,328 MRSA), more than 40 µM; in assay [9] (clinical isolate 24,408 MRSA, read-out: MIC 24,408 MRSA) it was more than 40 µM. The inhibition at 100 µM in the assay on A2780 cells [5] worked out at 70.2%. In addition, in assay [6], the “Fibroblast MTT Max Inhibition” value worked out at 32.22%. In addition, the “MCF7 SRB Max Inhibition” value in the assay on MCF7 cells is more than 90%. Moreover, the “U251 SRB Max Inhibition” value with U251 cells was more than 90%. Moreover, the IC50 in the assay on ID8 cells is 13.1 µM; with ID8 cells (Mus musculus, ID8, 48 h), 10 to 30 µM; in the assay on Capan2 cells, 15 µM; with Capan2 cells (Homo sapiens, Capan-2, 48 h), 10 to 30 µM; in the assay with A2780 cells [8] it was 36.2 µM; in the assay with A2780 cells [8] (Homo sapiens, A2780, 48 h) it was more than 30 µM. In addition, in the assay on ID8 cells, the “ID8 SRB Max Inhibition” value is listed as more than 90%. Further, the “Capan2 SRB Max Inhibition” value in the assay with Capan2 cells is recorded as more than 90%. Further, the “A2780 SRB Max Inhibition” value in the assay with A2780 cells [8] (up to 100 μM, ND = not detectable) is on record as more than 90%.

The record behind these values is publication PMC10096180, “Half-Sandwich Type Platinum-Group Metal Complexes of C-Glucosaminyl Azines: Synthesis and Antineoplastic and Antimicrobial Activities” (Molecules, 2023).
